Assay results taken from patent publication US10294246B2, “Substituted boronic acids and boronate esters as immunoproteasome inhibitors” (MERCK PATENT GMBH, priority 2014, dated 2019).

Columns and labels:
[1] = biological target: human immunoproteasome (LMP7) (Homo sapiens (Human), UniProt P28062); experiment: Determination of LMP7 activity (fluorescence intensity assay, Suc-LLVY-AMC); type: biochemical; details: for Selectivity LMP7 vs Beta5: LMP7 versus Beta5; for IC50: purified human immunoproteasome 0.25 nM, Suc-LLVY-AMC 40 μM
Description: Determination of LMP7 Activity:
Measurement of LMP7 inhibition is performed in 384 well format based on fluorescence intensity assay.
(§1) Purified human immunoproteasome (0.25 nM) and serial diluted compounds in DMSO (range of concentrations from 30 μM to […]) or controls are incubated for 20 minutes at 25° C. in assay buffer containing 50 mM Tris pH 7.4, 0.03% SDS, 1 mM EDTA and 1% DMSO. The reaction is initiated by the addition of the fluorogenic peptide substrate, Suc-LLVY-AMC (Bachem 1-1395), at a concentration of 40 μM. After 60 minutes of incubation at 37° C., fluorescence intensity is measured at λex=350 nm and λem=450 nm with a fluorescence reader (Perkin Elmer Envision reader or equivalent).

[2] = biological target: human constitutive proteasome (Beta5) (Homo sapiens (Human), UniProt P28074); experiment: Determination of Beta5 activity (fluorescence intensity assay, Suc-LLVY-AMC); type: biochemical; details: purified human constitutive proteasome 1.25 nM, Suc-LLVY-AMC 40 μM
Description: Determination of Beta5 Activity:
Measurement of Beta5 inhibition is performed in 384 well format based on fluorescence intensity assay.
as §1, with “constitutive proteasome (1.25” for “immunoproteasome (0.25”

Selectivity LMP7 vs Beta5 [1] | IC50 [1] [nM] | IC50 [2] [nM] | Structure (SMILES)
+++++ (Selectivity ≥ 100) | < 50 | 500 to 5000 | CO[C@@H](C(=O)N[C@@H](Cc1coc2ccccc12)B(O)O)c1ccccc1 [Compound No. 34, [(1R)-2-(benzofuran-3-yl)-1-[[(2R)-2-methoxy-2-phenyl-acetyl]amino]-ethyl]boronic acid]
++ (10 ≤ Selectivity < 50) | 500 to 5000 | > 5000 | C[C@H](C(=O)N[C@@H](C[C@@H]1COc2ccccc21)B(O)O)c1ccccc1C(=O)N(C)C [Compound No. 107, [(1R)-2-[(3S)-2,3-dihydrobenzofuran-3-yl]-1-[[(2S)-2-[2-(dimethylcarbamoyl)phenyl]propanoyl]amino]ethyl]boronic acid]
+++++ (Selectivity ≥ 100) | < 50 | 50 to 500 | COc1cccc2c(C[C@H](NC(=O)Cc3ccccc3)B(O)O)coc12 [Compound No. 92, [(1R)-2-(7-methoxybenzofuran-3-yl)-1-[(2-phenylacetyl)amino]ethyl]-boronic acid]
+++++ (Selectivity ≥ 100) | < 50 | > 5000 | COc1ccc(CC(=O)N[C@@H](C[C@H]2COc3ccccc32)B(O)O)cc1 [Compound No. 115, [(1R)-2-[(3R)-2,3-dihydrobenzofuran-3-yl]-1-[[2-(4-methoxyphenyl)-acetyl]amino]ethyl]boronic acid]
+++ (50 ≤ Selectivity < 70) | 50 to 500 | > 5000 | O=C(Cc1ccccc1)N[C@@H](Cc1c(Cl)oc2ccccc12)B(O)O [Compound No. 73, [(1R)-2-(2-chlorobenzofuran-3-yl)-1-[(2-phenylacetyl)amino]ethyl]-boronic acid]
++ (10 ≤ Selectivity < 50) | < 50 | 50 to 500 | Cc1ccc(C[C@H](NC(=O)CCOc2ccccc2)B(O)O)cc1 [Compound No. 4, [(1R)-1-(3-phenoxypropanoylamino)-2-(p-tolyl)ethyl]boronic acid]
+++++ (Selectivity ≥ 100) | < 50 | 50 to 500 | CCOc1ccc(CC(=O)N[C@@H](Cc2coc3ccccc23)B(O)O)nc1 [Compound No. 13, [(1R)-2-(benzofuran-3-yl)-1-[[2-(5-ethoxy-2-pyridyl)acetyl]amino]-ethyl]boronic acid]
+++++ (Selectivity ≥ 100) | – | 50 to 500 | CC(=O)Nc1ccc(CC(=O)N[C@@H](Cc2coc3ccccc23)B(O)O)cc1 [Compound No. 26, [(1R)-1-[[2-(4-acetamidophenyl)acetyl]amino]-2-(benzofuran-3-yl)ethyl]boronic acid]
+++++ (Selectivity ≥ 100) | < 50 | 50 to 500 | O=C(Cc1cccc(OCCO)c1)N[C@@H](Cc1coc2ccccc12)B(O)O [Compound No. 41, [(1R)-2-(benzofuran-3-yl)-1-[[2-[3-(2-hydroxyethoxy)phenyl]acetyl]-amino]ethyl]boronic acid]
+++ (50 ≤ Selectivity < 70) | < 50 | 50 to 500 | COc1cccc(CC(=O)N[C@@H](Cc2coc3ccccc23)B(O)O)n1 [Compound No. 12, [(1R)-2-(benzofuran-3-yl)-1-[[2-(6-methoxy-2-pyridyl)acetyl]amino]-ethyl]boronic acid]
+++++ (Selectivity ≥ 100) | – | 500 to 5000 | C[C@H](C(=O)N[C@@H](Cc1coc2ccccc12)B(O)O)c1ccccc1 [Compound No. 37, [(1R)-2-(benzofuran-3-yl)-1-[[(2S)-2-phenylpropanoyl]amino]ethyl]-boronic acid]
+++++ (Selectivity ≥ 100) | < 50 | 500 to 5000 | O=C(N[C@@H](Cc1coc2ccccc12)B(O)O)C(c1ccccc1)c1ccccc1 [Compound No. 68, [(1R)-2-(benzofuran-3-yl)-1-[(2,2-diphenylacetyl)amino]ethyl]boronic acid]
++ (10 ≤ Selectivity < 50) | < 50 | 500 to 5000 | Cc1ccc(C[C@H](NC(=O)Cc2ccc(NC(=O)C(F)(F)F)cc2)B(O)O)c(C)c1 [Compound No. 53, [(1R)-2-(2,4-dimethylphenyl)-1-[[2-[4-[(2,2,2-trifluoroacetyl)amino]-phenyl]acetyl]amino]ethyl]boronic acid]
+++++ (Selectivity ≥ 100) | < 50 | > 5000 | COc1ccc(CC(=O)N[C@@H](C[C@@H]2COc3c(C)cccc32)B(O)O)cc1 [Compound No. 89, [(1R)-1-[[2-(4-methoxyphenyl)acetyl]amino]-2-[(3S)-7-methyl-2,3-dihydrobenzofuran-3-yl]ethyl]boronic acid]
++++ (70 ≤ Selectivity < 100) | < 50 | 50 to 500 | COc1ccccc1CC(=O)N[C@@H](Cc1coc2ccccc12)B(O)O [Compound No. 27, [(1R)-2-(benzofuran-3-yl)-1-[[2-(2-methoxyphenyl)acetyl]amino]ethyl]-boronic acid]
+++++ (Selectivity ≥ 100) | < 50 | 500 to 5000 | Cc1cccc2c(C[C@H](NC(=O)[C@H](CO)c3ccccc3)B(O)O)coc12 [Compound No. 79, [(1R)-1-[[(2S)-3-hydroxy-2-phenyl-propanoyl]amino]-2-(7-methylbenzofuran-3-yl)ethyl]boronic acid]
+++++ (Selectivity ≥ 100) | < 50 | 50 to 500 | O=C(Cc1ccc(OCCO)cc1)N[C@@H](Cc1coc2ccccc12)B(O)O [Compound No. 39, [(1R)-2-(benzofuran-3-yl)-1-[[2-[4-(2-hydroxyethoxy)phenyl]acetyl]-amino]ethyl]boronic acid]
+++++ (Selectivity ≥ 100) | 50 to 500 | > 5000 | Cc1cccc2c1OCC2C[C@H](NC(=O)Cc1ccccc1C(=O)N(C)C)B(O)O (stereo partly drawn) [Compound No. 100, [(1R)-1-[[2-[2-(dimethylcarbamoyl)phenyl]acetyl]amino]-2-(7-methyl-2,3-dihydrobenzofuran-3-yl)ethyl]boronic acid]
++++ (70 ≤ Selectivity < 100) | < 50 | 50 to 500 | O=C(Cc1cccc(OCCCO)c1)N[C@@H](Cc1coc2ccccc12)B(O)O [Compound No. 31, [(1R)-2-(benzofuran-3-yl)-1-[[2-[3-(3-hydroxypropoxy)phenyl]acetyl]-amino]ethyl]boronic acid]
+++++ (Selectivity ≥ 100) | < 50 | > 5000 | Cc1ccc(C[C@H](NC(=O)Cc2ccc(N(C)C)cc2)B(O)O)c(C)c1 [Compound No. 44, [(1R)-1-[[2-(4-dimethylaminophenyl)acetyl]amino]-2-(2,4-dimethylphenyl)ethyl]boronic acid]
++++ (70 ≤ Selectivity < 100) | < 50 | 500 to 5000 | O=C(Cc1ccccc1-c1ccccc1)N[C@@H](Cc1coc2ccccc12)B(O)O [Compound No. 98, [(1R)-2-(benzofuran-3-yl)-1-[[2-(2-phenylphenyl)acetyl]amino]-ethyl]boronic acid]
+++ (50 ≤ Selectivity < 70) | < 50 | 50 to 500 | O=C(Cc1ccc(N2CCCC2=O)cc1)N[C@@H](Cc1coc2ccccc12)B(O)O [Compound No. 64, [(1R)-2-(benzofuran-3-yl)-1-[[2-[4-(2-oxopyrrolidin-1-yl)phenyl]acetyl]-amino]ethyl]boronic acid]
+++ (50 ≤ Selectivity < 70) | < 50 | 500 to 5000 | O=C(Cc1ccccc1OCCO)N[C@@H](Cc1coc2ccccc12)B(O)O [Compound No. 50, [(1R)-2-(benzofuran-3-yl)-1-[[2-[2-(2-hydroxyethoxy)phenyl]acetyl]-amino]ethyl]boronic acid]
+++ (50 ≤ Selectivity < 70) | – | – | Cc1ccc(OCCC(=O)N[C@@H](Cc2coc3ccccc23)B(O)O)cc1 [Compound No. 7, [(1R)-2-(benzofuran-3-yl)-1-[3-(4-methylphenoxy)propanoylamino]-ethyl]boronic acid]
+++++ (Selectivity ≥ 100) | – | – | CCO[C@@H](C(=O)N[C@@H](Cc1coc2ccccc12)B(O)O)c1ccccc1 [Compound No. 70, [(1R)-2-(benzofuran-3-yl)-1-[[(2R)-2-ethoxy-2-phenyl-acetyl]amino]-ethyl]boronic acid]
– | 50 to 500 | – | COc1ccc(CC(=O)N[C@@H](C[C@H]2COc3ccccc32)B(O)O)cc1 [Compound No. 122, [(1R)-2-[(3R)-2,3-dihydrobenzofuran-3-yl]-1-[[2-(4-methoxyphenyl)-acetyl]amino]ethyl]boronic acid]
